{
  "source": "patent US9572826B2",
  "about": "“Compositions for the treatment of hair loss” (priority 2008, dated 2017)",
  "origin": "cited, not measured here",
  "key": {"hair loss": {"system": "hair loss", "conditions": "human, in vivo"}, "alopecia areata": {"system": "alopecia areata", "conditions": "intralesional injection"}},
  "data": [
    {"smiles": "CC(C)(C)NC(=O)[C@H]1CC[C@H]2[C@@H]3CC[C@H]4NC(=O)C=C[C@]4(C)[C@H]3CC[C@]12C", "note": "[Finasteride]", "values": [
      {"measurement": "patients in whom effective", "setting": "hair loss", "value": "approximately 50%"},
      {"measurement": "side effects reported", "setting": "hair loss", "value": "erectile dysfunction and gynecomastica"}
    ]},
    {"smiles": "CC(C)(C)CC(=O)OCC(=O)[C@@]12OC(C)(C)O[C@@H]1C[C@H]1[C@@H]3CCC4=CC(=O)C=C[C@]4(C)[C@@]3(F)[C@@H](O)C[C@@]12C", "note": "[triamcinolone hexacetonide]", "values": [
      {"measurement": "injected sites with hair regrowth", "setting": "alopecia areata", "value": "33 out of 34"}
    ]}
  ]
}
